What was measured:
[1] = Quantification of −SH content with Ellman's reagent; type: physicochemical
Protocol: Per-6-thiolated α-CD was assessed for the amount of thiol by using Ellman’s reagent.[16] The calibration curve was established using L-cysteine.

[2] = Resazurin cytotoxicity assay on Caco-2 cells; type: cell-based, human; details: human, read-out: cell viability
Protocol: (§1) The impact of per-6-thiolated α-CD on viability of human colorectal carcinoma (Caco-2) cells was evaluated by resazurin assay to confirm the safety of the newly synthesized oligomer. For this purpose, Caco-2 cells were obtained from the European Collection of Cell Cultures (Salisbury, UK). Caco-2 cells at a density of 2.5 × 10^4 cells/well were suspended in 500 μL of MEM and seeded to a 24-well plate. The plate was incubated at an atmosphere of CO2 (5%) and relative humidity (95%) at 37 °C for 2 weeks. During this culture period, the medium was replaced on alternative days.
(§2) Toxicity assay was performed to investigate the cytotoxic potential of per-6-thiolated α-CD by quantifying resorufin formed by the reduction of resazurin. On the day of the experiment, cells of around 80% confluency were washed two times with preheated 10 mM PBS pH 7.4. The oligomer solutions (500 μL) of per-6-thiolated and unmodified α-CD (0.5% m/v) in white MEM, 4% (v/v) Triton X-100 acting as a negative control and white MEM acting as a positive control were transferred to the cell culture wells.
(§3) After 3 and 24 h, test samples were withdrawn, and the cells were washed two times with preheated PBS. In the following, 500 μL of resazurin (2.2 μM) solution was added, and cells were further incubated for 3 h. Aliquots (100 μL) were inserted to a 96-well plate, and the fluorescence was analyzed at emission and excitation wavelength of 590 and 540 nm utilizing a microplate reader (M-200 spectrometer; Tecan infinite, Austria). Cell viability of cells was measured using eq 1 [drawing 1] 1

[3] = tested on: human colorectal carcinoma (Caco-2) cells; test: Resazurin cytotoxicity assay on Caco-2 cells; type: cell-based; details: 0.5% (m/v), within 24 h
Protocol: as §1, §2, §3

[4] = pKa of −SH groups by photometric method; type: physicochemical; details: 0.001 M HCl containing 0.1 M NaCl, titrated with 0.01% NaOH; absorbance at 242 nm, 0.1% m/v
Protocol: As the stability of sulfhydryl groups depends on thiolate anions concentration, the pKa value of −SH groups on per-6-thiolated α-CD was determined via an established photometric method with some modifications.[17] Briefly, ionic strength was stabilized by dissolving per-6-thiolated α-CD (0.1% m/v) in 0.001 M HCl containing 0.1 M NaCl. Increasing volumes of 0.01% NaOH were added to per-6-thiolated CD solutions that were continuously measured regarding pH and absorbance at 242 nm. The pKa was determined by plotting pH versus −log[(Amax – Ai)/Ai].

[5] = Stability of −SH groups toward oxidation at different pH; type: physicochemical
Protocol: Furthermore, the stability of the thiolated CD was measured under different pH. In short, per-6-thiolated α-CD (0.25% m/v) was hydrated in water, and pH was adjusted to 4 and 5 with acetate buffer (50 mM), to 6 with phosphate buffer (50 mM), and to 7.2 with Tris buffer (50 mM). Test samples were kept under continuous stirring at 37 °C. After specific time intervals, aliquots of 500 μL were taken. Any further reaction was quenched by adding 50 μL of 1 M HCl to each aliquot.[18] Sulfhydryl groups were quantified using Ellman’s reagent.

[6] = Phase-solubility study with FUR (apparent stability constant KC); type: physicochemical; details: aqueous solution, room temperature, 1:1 complex
Protocol: The suspension was homogenized at room temperature using a thermomixer (Thermomixer C, Eppendorf, Austria) at 750 rpm until equilibrium in solubility was reached (3–4 days).

Caco-2 cell monolayer = test: TEER measurement on the Caco-2 cell monolayer; type: cell-based, human; details: for decrease in TEER: Caco-2 monolayer, during 3 h permeation experiment; for TEER regained in comparison to initial values: after cell washing and incubating with MEM
Protocol: Permeation studies on the Caco-2 cell monolayer were executed as described previously.[23] Caco-2 cells at a density of 0.6 × 10^5 cells/cm^2 were seeded onto 24-well plates with ThinCert inserts (pore-size: 400 μm, Greiner Bio-One, Kremsmünster, Austria). Cells were cultured in MEM containing 20% FCS in an atmosphere of 5% CO2 and 95% humidity at 37 °C. The medium was renewed every other day for 21 days. For permeation studies, only cell monolayers showing a transepithelial electrical resistance (TEER) in the range of 300–500 Ω cm^2 were applied, which were determined with an EVOM instrument. TEER was also determined at time point 3 h representing the end of the permeation experiment and after 24 and 48 h to confirm monolayer integrity. Before the start of the experiment, cells were washed with PBS. Thereafter, 500 μL of MEM without FCS was transferred to the donor chamber and 1000 μL of the same medium was transferred to an accepter chamber.

amount of −S–S– groups on the CD backbone [1] [µmol/g]	amount of −SH groups on the CD backbone ([1]; Ellman's reagent) [µmol/g]	pKa [4]	−SH groups oxidized ([5]; after 3 h at pH 5, 37 °C) [%]	stability of −SH groups ([5]; pH 4, 37 °C, 0.25% m/v)	stability of −SH groups ([5]; pH ≤ 4)	apparent stability constant (KC) with FUR [6] [M^–1]	Structure (SMILES)	viability at 3 h, 0.5 % (m/v) ([2]; after 3 h) [%]	viability at 24 h, 0.5 % (m/v) ([2]; after 24 h) [%]	cytotoxicity [3]	decrease in TEER (Caco-2 cell monolayer)	TEER regained in comparison to initial values (Caco-2 cell monolayer; after 24 h) [%]	TEER regained in comparison to initial values (Caco-2 cell monolayer; after 48 h) [%]
786 ± 139	4244 ± 402	8.1	15	stable	stable	1090.9	O[C@@H]1[C@@H](O)[C@H]2O[C@H]3[C@H](O)[C@@H](O)[C@@H](O[C@H]4[C@H](O)[C@@H](O)[C@@H](O[C@H]5[C@H](O)[C@@H](O)[C@@H](O[C@H]6[C@H](O)[C@@H](O)[C@@H](O[C@H]7[C@H](O)[C@@H](O)[C@@H](O[C@@H]1[C@@H](CS)O2)O[C@@H]7CS)O[C@@H]6CS)O[C@@H]5CS)O[C@@H]4CS)O[C@@H]3CS [per-6-thiolated α-CD, per-6-thiolated α-cyclodextrin]	> 88	> 88	not cytotoxic	up to 28%	82	90
						1050.7	OC[C@H]1O[C@@H]2O[C@H]3[C@H](O)[C@@H](O)[C@@H](O[C@H]4[C@H](O)[C@@H](O)[C@@H](O[C@H]5[C@H](O)[C@@H](O)[C@@H](O[C@H]6[C@H](O)[C@@H](O)[C@@H](O[C@H]7[C@H](O)[C@@H](O)[C@@H](O[C@H]1[C@H](O)[C@H]2O)O[C@@H]7CO)O[C@@H]6CO)O[C@@H]5CO)O[C@@H]4CO)O[C@@H]3CO [α-CD, α-cyclodextrin, reference compound]				~15%		

— paper PMC7205388, “Per-6-Thiolated Cyclodextrins: A Novel Type of Permeation Enhancing Excipients for BCS Class IV Drugs” (ACS Applied Materials & Interfaces, 2020)
